Measurements reported in PMC8949075, “Evaluation of Two Novel Hydantoin Derivatives Using Reconstructed Human Skin Model Episkin^TM: Perspectives for Application as Potential Sunscreen Agents” (Molecules, 2022).

Tests used:
[1] = Relative lipophilicity by reversed-phase thin-layer chromatography; type: physicochemical; conditions: RP-TLC, RP-18 plates, methanol/phosphate buffer pH 7.4, extrapolated to 0% methanol
Method: The experimental log P was determined by reversed-phase thin-layer chromatography (RP-TLC). TLC was carried out on plates precoated with silica gel RP-18 F254 (Merck, Darmstadt, Germany). The mobile phases used were the mixtures of methanol (commercially available material of reagent grade) and 100 mM potassium–phosphate buffer (pH = 7.4), with the methanol content ranging from 95 to 65% (v/v) in 5% increments. A total of 10 μL of test compound solutions in methanol (1 mg/mL) were spotted on the plates. The plates were developed in chromatographic chambers previously saturated with solvent for 1 h. After development (at room temperature in a normal chamber: 22 × 22 × 7 cm) and the drying of the plates, the spots were observed under a UV lamp (λ = 254 nm). The Rf values were mean values from two independent chromatographic runs. The experimental Rf was converted into the RM value according to the following equation [66]: RM = log (1/Rf − 1). The calculated values were extrapolated for a 0% methanol concentration (RM0) using the equation: RM = RM0 + bC, where C is the concentration (%, v/v) of methanol in the mobile phase and b is the regression term.

[2] = design: method as in PMID 31238526; conditions: cited from earlier work
[3] = tested on: Episkin^TM reconstructed human epidermis; assay: Episkin phototoxicity test (UVA 50 J/cm^2; MTT viability, Il-1α release); type: cell-based; conditions: 0.5 and 1 mM; for phototoxic potential / viability of irradiated epidermis: UVA 50 J/cm^2; for tissue viability without UVA exposure: non-irradiated
Method: The MM was provided by the manufacturer.
Compounds JH3 and JH10 (final concentrations of 0.5 and 1 mM) solubilized in ethanol (final concentration of 1% in water) were applied topically on the tissue surface. Chlorpromazine (CPZ, chlorpromazine hydrochloride, C17H19ClN2S·HCl, CAS number: 69-09-0, molecular weight: […], purity: meets USP testing specifications, Sigma-Aldrich, Darmstadt, Germany) (final concentration of 0.5 mM, based on literature data) was used as a positive control, whereas solvent alone served as a negative control.
Duplicate plates were prepared for UVA and dark (controls) exposure purposes. After the treatment period of 2 h, the excess test compound was removed from each well, and the tissues were exposed to UVA at a non-cytotoxic dose of 50 J/cm^2 ([…] at 250 W/m^2) with a solar light simulator equipped with a window glass filter and ID65 filter (Suntest CPS+, Atlas, Linsengericht, Germany). The emitted spectrum contained both UV and visible outputs with a UV cut-on of approx. 320 nm and corresponded to ID65 per ISO 10,977 [74]. The irradiance level between 320 and 400 nm was approximated by the following equation: W/m^2 (320–400 nm) = W/m^2 (300–800 nm) ÷ 11.5. In parallel, the non-irradiated treated tissues were placed in the dark under the same conditions. […] Next, cell viability was assessed using an MTT conversion test and the culture media aliquots were kept frozen (−20 °C) for Il-1α measurement (see 2.3.2. The Episkin^TM skin irritation test method section).

[4] = tested on: CHO-K1 cells; assay: In vitro micronucleus assay; type: cell-based, Chinese hamster; conditions: for DB (dicentric bridges) / MN (micronuclei) / NB (nuclear buds): count in 1000 binucleated cells per slide; for effect on MN, DB, NB and NDI: 1, 5 and 10 µM
Method: The CHO-K1 cells were seeded in 6-well plates at a density of 1 × 10^6 cells/well and incubated overnight at 37 °C, 5% CO2 atmosphere. […] The test compounds and 4MBC were dissolved in DMSO (solvent, final concentration 0.1%) and ethanol (co-solvent, final concentration 1%). After 24 h of treatment, the medium was removed, and the cells were rinsed with PBS. Then, fresh medium containing cytochalasin B (CytB; Sigma Aldrich, Darmstadt, Germany) (4.5 µg/mL) was added and incubation was continued for the next 24 h.
After the incubation period, the cells were washed with fresh medium, detached by trypsinization, and centrifuged. The supernatant was discarded and 5 mL of 1% ice-cold sodium citrate (Chempur, Piekary Śląskie, Poland) was added to the cell pellet, which was then gently resuspended. After 15 s, 5 mL of freshly prepared fixative solution (methanol/acetic acid, 3:1) and 4 drops of formaldehyde were added. The cell suspension was centrifuged (5 min, 1000 rpm), the supernatant was discarded again, and the pellet was fixed in fixative mixture two more times, without formaldehyde. After the third fixation, part of the supernatant was removed, and around 1 mL of the supernatant was retained to resuspend the cells. The suspension was then dripped onto clean, previously frozen, glass slides to dry. After air-drying, the slides were stained with Giemsa dye (1:20 in phosphate buffer) for 5 min [56, 78, 79].
One thousand binucleated cells per slide with intact nuclei of equal size, similar pattern of cytoplasm staining, intact membrane, and distinguishable from adjacent cells, without apoptotic and necrotic cells were analyzed. Only the micronuclei with the same morphology and color of the main nuclei, with 1/16 to 1/3 of the major nucleus diameter, unrefringent and not overlapping or connected to the main nuclei were counted. Moreover, the presence of dicentric bridges (DB) and nuclear buds (NB) in the binucleated cells was analyzed. The nuclear division index (NDI) was calculated using the following formula: [(1 × MOC) + (2 × BC) + (3 × MUC)]/N, where MOC is the number of mononuclear cells, BC is the number of binuclear cells, MUC represents the number of multinuclear cells, and N is the total number of scored cells. The micronucleus incidence was presented as a number of micronuclei per 1000 examined binuclear cells. The experiment was conducted two times with three repetitions for each condition.

SMILES: CCOC(=O)CN1C(=O)/C(=C/C=C/c2ccc(OC)cc2)N(CC(=O)OCC)C1=O [JH3, diethyl 2,2′-((Z)-4-((E)-3-(4-methoxyphenyl)allylidene)-2,5-dioxoimidazolidine-1,3-diyl)diacetate]
- relative lipophilicity value (RM0) [1]: 3.22
- photostability [2]: photostable
- phototoxic potential [3]: absence of phototoxic potential
- viability of irradiated epidermis [3]: no significant difference
- tissue viability without UVA exposure [3]: no changes in tissue viability
- NDI (nuclear division index) ([4]; 1 µM): 1.45
- DB (dicentric bridges) ([4]; 1 µM): 3.8
- MN (micronuclei) ([4]; 1 µM): 10.1 ± 3.3
- NB (nuclear buds) ([4]; 1 µM): 3.6
- NDI (nuclear division index) ([4]; 5 µM): 1.40
- DB (dicentric bridges) ([4]; 5 µM): 4.1
- MN (micronuclei) ([4]; 5 µM): 10.5 ± 3.9
- NB (nuclear buds) ([4]; 5 µM): 3.5
- NDI (nuclear division index) ([4]; 10 µM): 1.32
- DB (dicentric bridges) ([4]; 10 µM): 3.6
- MN (micronuclei) ([4]; 10 µM): 12.0 ± 4.2
- NB (nuclear buds) ([4]; 10 µM): 5.4
- effect on MN, DB, NB and NDI [4]: did not significantly alter any of the evaluated parameters

SMILES: CCOC(=O)CN1C(=O)/C(=C/c2ccc(OC)cc2)N(CC(=O)OCC)C1=O [JH10, diethyl 2,2′-((Z)-4-(4-methoxybenzylidene)-2,5-dioxoimidazolidine-1,3-diyl)diacetate]
- relative lipophilicity value (RM0) [1]: 2.46
- photostability [2]: photostable
- phototoxic potential [3]: absence of phototoxic potential
- viability of irradiated epidermis [3]: no significant difference
- tissue viability without UVA exposure [3]: no changes in tissue viability
- NDI (nuclear division index) ([4]; 1 µM): 1.31
- DB (dicentric bridges) ([4]; 1 µM): 3.5
- MN (micronuclei) ([4]; 1 µM): 9.0 ± 3.9
- NB (nuclear buds) ([4]; 1 µM): 4.3
- NDI (nuclear division index) ([4]; 5 µM): 1.38
- DB (dicentric bridges) ([4]; 5 µM): 3.8
- MN (micronuclei) ([4]; 5 µM): 11.2 ± 3.6
- NB (nuclear buds) ([4]; 5 µM): 5.2
- NDI (nuclear division index) ([4]; 10 µM): 1.47
- DB (dicentric bridges) ([4]; 10 µM): 3.5
- MN (micronuclei) ([4]; 10 µM): 9.5 ± 3.7
- NB (nuclear buds) ([4]; 10 µM): 3.2
- effect on MN, DB, NB and NDI [4]: did not significantly alter any of the evaluated parameters
